From patent publication US20050124493A1, “Herbicidal composition” (priority 2002, published 2005) come the findings set out here.

This experiment concerns wheat and barley. Kind of experiment: Post-emergence greenhouse test of herbicide mixture with safener (Example B1). The class given is in vivo. To be noted: greenhouse pots, mixture of MCPA, bromoxynil and herbicide H1 or H2, alone vs. with safener (admixture or seed dressing), evaluated after 9, 10, 20 and 24 days, 100% action=plant completely dead, 0%=no phytotoxic action. An excerpt:
Examples B1: Post-emergence applications of mixtures of MCPA, bromoxynil and the herbicide of formula I wherein R1 and R3 are —C2H5; R4 and R5 together form a group —CR14(R15)—CR16(R17)—O—CR18(R19)—CR20(R21)— wherein R14, R15 R16, R17, R18, R19, R20 and R21 are hydrogen; and G is either hydrogen (=herbicide H1) or (CH3)3CC(O)— (=herbicide H2), with the safener of formula II wherein Rs1 is chlorine and Rs2 is 1-methylhexyl, in wheat and barley, and together with 3 different weeds.
The test plants are grown to a post-application stage in pots under greenhouse conditions. A standard soil is used as cultivation substrate. At a post-emergence stage, the herbicides, both on their own and in admixture with the safener, are applied to the test plants or to cultivated plants seed-dressed with safener. The application is carried out using an emulsion (prepared from a 25% emulsifiable concentrate (Example F1, b)) of the test substances using 500 litres of water per ha. The rates of application depend on the optimum concentrations ascertained under field conditions and greenhouse conditions. The tests are evaluated after 9, 10, 20 and 24 days (100% action=plant is completely dead, 0% action=no phytotoxic action).

Regarding `CCCCCC(C)OC(=O)COc1ccc(Cl)c2cccnc12` (stereo not shown) [safener], the “damage caused to the cultivated plants by the herbicide mixture (phytotoxic action)” value is recorded as “significantly reduce the damage”.
